US9795593B2, “Use of 3-(3-[1,2,4]-triazolo)-oxatriazolium-5-olate for treating sexual disorders” (LIMITED LIABILITY COMPANY “KONSORTSIUM-PIK”, priority 2014, dated 2017)

Tested on: male Wistar rats, model of arterial hypertension with endothelial dysfunction
Experiment: Blood pressure and heart rate in rat model of arterial hypertension with endothelial dysfunction (L-NAME + 3% NaCl)
Type: in vivo
Conditions: for DBP / HR / SBP: M ± m, n = 8
Procedure: In the model of arterial hypertension with endothelial dysfunction, endothelial NOS blocker N-nitro-L-arginine methyl ester (L-NAME) was administered intraperitoneally, 25 mg/kg, daily, for 7 days. The blocker was administered in 3% sodium chloride in the dose 1 ml/100 g of body weight. This combination of NO-synthase inhibitor with hypertonic solution provides RAAS activation, aldosterone discharge, retention of sodium and water, functional impairment of the vascular endothelium.
The experiments were performed with the use of 40 white male Wistar rats with the baseline body weight 220-240 g and 20 white virgin female rats 180-200 g. The animals were purchased from Rappolovo farm (Russian Academy of Medical Sciences, Saint-Petersburg). Besides mixed fodder, the rats received bread.
AS-6 substance (lot 080909) containing 101.0% of the active ingredient was used, according to the Protocol of Analysis No. 80-Pr, dated by 25 Sep. 2009 (Federal State Unitary Enterprise Special Technology and Construction Bureau “Tekhnolog”). The substance was used for preparation of solutions for daily oral administration based on the physiological saline.
The physiological saline was used as placebo. The solutions were administered daily through the atraumatic metallic feeding tube with fire-polished olive with the use of dosing syringe.
The animals were divided into the arms as follows: 1—intact animals; 2—control group, males (L-NAME+NaCl; physiological saline as placebo); 3—male rats that received AS-6 in the dose 0.5 mg/kg (Dose 1); 4—male rats that received AS-6 in the dose 5 mg/kg (Dose 2); 5—male rats that received AS-6 in the dose 10 mg/kg (Dose 3); 6—virgin female rats (only in the assessment of the sexual activity). Each group included 8 animals.
The measurement of the blood pressure in rats was performed with the use of the system for non-invasive blood pressure measurement for small animals within the complex Polygraph for electrophysiological studies (MP150WSW “BIOPAC Systems, Inc.”, USA.)
Rats were placed into special boxes. HR and BP (SBP and DBP) were recorded several minutes after the stabilization of the measured parameters. The parameters were measured on the tails with the use of piezoelectric probe and corresponding cuff, several minutes following animal placement on the thermostated sheet that maintained the temperature in the chambers within 26-27° C. The functional cardiovascular testing was performed before (at baseline) and after the administration of NOS inhibitor and at the end of treatment.

[1] = AS-6 0.5 mg/kg oral daily, After treatment (Day 14)
[2] = AS-6 5 mg/kg oral daily, After treatment (Day 14)
[3] = AS-6 10 mg/kg oral daily, After treatment (Day 14)
[4] = arm AS-6 0.5 mg/kg, Baseline (Day 0), before L-NAME and treatment
[5] = arm AS-6 0.5 mg/kg, Post-dose L-NAME (Day 7), before treatment
[6] = arm AS-6 5 mg/kg, Baseline (Day 0), before L-NAME and treatment
[7] = arm AS-6 5 mg/kg, Post-dose L-NAME (Day 7), before treatment
[8] = arm AS-6 10 mg/kg, Baseline (Day 0), before L-NAME and treatment
[9] = arm AS-6 10 mg/kg, Post-dose L-NAME (Day 7), before treatment

`[O-]c1n[n+](-c2nc[nH]n2)no1` [AS-6, 3-(3-[1,2,4]-triazolo)-oxatriazolium-5-olate] was tested, and the “effect on SBP and DBP levels” value (AS-6 0.5 mg/kg) was “did not affect SBP or DBP levels”, the DBP [1] was 111.9 ± 5.2 mm Hg and the HR [1] was 420.0 ± 13.7. The SBP [1] was 153.1 ± 7.3 mm Hg, the “effect on SBP and DBP levels” value (AS-6 5 mg/kg) was “decrease of elevated DBP and unchanged elevated SBP” and the DBP [2] was 111.5 ± 7.9 mm Hg. The HR [2] was 435.9 ± 28.9, the SBP [2] was 141.9 ± 7.1 mm Hg and the DBP [3] was 102.0 ± 3.2 mm Hg. For the same compound, the HR [3] was 404.4 ± 17.6, the SBP [3] was 123.4 ± 4.2 mm Hg and the “effect on blood pressure” value (AS-6 10 mg/kg, vs. baseline values and experimental model, p<0.05) was “normalization of the blood pressure”. For the same compound, the DBP [4] was 98.7 ± 2.2 mm Hg, the HR [4] was 417.6 ± 17.6 and the SBP [4] was 126.2 ± 2.5 mm Hg. It also gave a DBP [5] of 113.8 ± 4.6 mm Hg, an HR [5] of 351.8 ± 8.7 and an SBP [5] of 145.0 ± 3.1 mm Hg. It also gave a DBP [6] of 97.9 ± 3.2 mm Hg, an HR [6] of 428.2 ± 22.1 and an SBP [6] of 123.8 ± 3.4 mm Hg. For the same compound, the DBP [7] was 117.0 ± 4.4 mm Hg, the HR [7] was 376.0 ± 15.3 and the SBP [7] was 148.6 ± 4.5 mm Hg. The DBP [8] was 98.5 ± 4.7 mm Hg, the HR [8] was 393.6 ± 19.1 and the SBP [8] was 130.5 ± 4.6 mm Hg. For the same compound, the DBP [9] was 120.1 ± 5.0 mm Hg, the HR [9] was 357.1 ± 14.8 and the SBP [9] was 149.1 ± 3.4 mm Hg. The “changes of the heart rate” value (control or experimental arm) was “No significant changes of the heart rate” and the “effect on blood pressure, dose dependence” value (peak at 10 mg/kg after 7 days of treatment) was “dose-dependent decrease of blood pressure”.
